Marks after values point to notes of the source that are not given here.
How the values were obtained:
Assay type in all cases: in vivo
[1] = system: SD rats fed with high fat and fructose diet; experiment: Liver, kidney and adipose tissue weight after sacrifice; settings: HFFD-fed SD rats, oral 10 weeks
Source text: (§1) The present invention provides a method of treatment of preventing hyperglycemia complications using at least one pharmaceutical made from a red mold product, wherein the red mold product is a red mold rice or a red mold Dioscorea, and the pharmaceutical is an extract obtained from the red mold product. The extract is Monascin, Ankaflavin, or a combination of Monascin and Ankaflavin. […] Moreover, in order to verify the practicability of the method of treatment of preventing hyperglycemia complications proposed by the present invention, a particularly-arranged of animal experiment is completed by inventors. After 1-week pre-feeding, several SD rats are divided into 9 experimental groups for carrying out 10-week animal experiment.
Insulin is used for impelling the absorption and utilization of blood glucose in liver, muscle and adipose tissue. Because white adipose tissue (WAT) is used for storing triglycerides (TG) transformed from blood glucose, a large amount of accumulation of adipocytes would cause the occurrence of inflammatory response so as to induce lipolysis action. Therefore, the inflammatory-induced lipolysis action would produce a large amount of glycerin and free fatty acid (FFA), so as to aggravate the production of Hyperglycemia, fatty liver, and high blood ketone. Based on above reasons, the effects provided by the different test samples on liver, kidney, and adipose tissue weight of the rats are needed to be determined.
For carrying out the determination of liver, kidney, and adipose tissue weight, it needs to sacrifice the rats. After sacrificing the rat, blood to be determined is collected from the intraperitoneal of the rat by using syringes, and then the collected blood are disposed into a 2-mL microcentrifuge tube. After staying for 5 minutes, the microcentrifuge tube carrying with blood is treated with a centrifugation process, and then the serum of the blood is stored in an environment with −20° C. After that, the liver, kidney, and adipose tissue are taken out of the rat.

[2] = system: SD rats fed with high fat and fructose diet; experiment: Oral glucose tolerance test (OGTT), AUC of blood glucose; settings: FIG. 2, vs HFFD group, oral 10 weeks, 1-fold dose mg/kg bw/day: MF 78.06, RMD 104.17, Monascin 0.31 (MS1X), Ankaflavin 0.16 (AK1X), MS-AK 0.31 + 0.16
Source text: as §1

adiponectin = experiment: Adiponectin expression in adipose tissue; settings: FIG. 3, vs HFFD group; HFFD-fed SD rats, oral 10 weeks; 1-fold dose mg/kg bw/day: MF 78.06, RMD 104.17, Monascin 0.31 (MS1X), Ankaflavin 0.16 (AK1X), MS-AK 0.31 + 0.16
Source text: as §1

[3] = system: Reactive Oxygen Species (ROS); experiment: ROS concentration in liver; settings: FIG. 4, vs HFFD group; HFFD-fed SD rats, oral 10 weeks; 1-fold dose mg/kg bw/day: MF 78.06, RMD 104.17, Monascin 0.31 (MS1X), Ankaflavin 0.16 (AK1X), MS-AK 0.31 + 0.16
Source text: as §1

TNF-α = TNF-α expression in adipose tissue; settings: FIG. 5, vs HFFD group; HFFD-fed SD rats, oral 10 weeks; 1-fold dose mg/kg bw/day: MF 78.06, RMD 104.17, Monascin 0.31 (MS1X), Ankaflavin 0.16 (AK1X), MS-AK 0.31 + 0.16
Source text: as §1

GLUT-2 = GLUT-2 expression in adipose tissue; settings: FIG. 6, vs HFFD group; HFFD-fed SD rats, oral 10 weeks; 1-fold dose mg/kg bw/day: MF 78.06, RMD 104.17, Monascin 0.31 (MS1X), Ankaflavin 0.16 (AK1X), MS-AK 0.31 + 0.16
Source text: as §1

GLUT-4 = GLUT-4 expression in adipose tissue; settings: FIG. 7, vs HFFD group; HFFD-fed SD rats, oral 10 weeks; 1-fold dose mg/kg bw/day: MF 78.06, RMD 104.17, Monascin 0.31 (MS1X), Ankaflavin 0.16 (AK1X), MS-AK 0.31 + 0.16
Source text: as §1

IL-6 = IL-6 expression in adipose tissue; settings: FIG. 8, vs HFFD group; HFFD-fed SD rats, oral 10 weeks; 1-fold dose mg/kg bw/day: MF 78.06, RMD 104.17, Monascin 0.31 (MS1X), Ankaflavin 0.16 (AK1X), MS-AK 0.31 + 0.16
Source text: as §1
(§2) Please refer to FIG. 8 and FIG. 9, where a statistical bar graph of IL-6 expression in adipose tissue and a statistical bar graph of IL-1β expression in adipose tissue are provided.

IL-1β = IL-1β expression in adipose tissue; settings: FIG. 9, vs HFFD group; HFFD-fed SD rats, oral 10 weeks; 1-fold dose mg/kg bw/day: MF 78.06, RMD 104.17, Monascin 0.31 (MS1X), Ankaflavin 0.16 (AK1X), MS-AK 0.31 + 0.16
Source text: as §1, §2

HIF-1α = HIF-1α expression in adipose tissue; settings: FIG. 10, vs HFFD group; HFFD-fed SD rats, oral 10 weeks; 1-fold dose mg/kg bw/day: MF 78.06, RMD 104.17, Monascin 0.31 (MS1X), Ankaflavin 0.16 (AK1X), MS-AK 0.31 + 0.16
Source text: as §1

[4] = system: SD rats fed with high fat and fructose diet; experiment: Histomorphology of liver slices (fatty liver); settings: FIG. 11, vs HFFD group, oral 10 weeks, 1-fold dose mg/kg bw/day: MF 78.06, RMD 104.17, Monascin 0.31 (MS1X), Ankaflavin 0.16 (AK1X), MS-AK 0.31 + 0.16
Source text: as §1

[5] = 1-fold dose mg/kg bw/day: MF 78.06, RMD 104.17, Monascin 0.31 (MS1X), Ankaflavin 0.16 (AK1X), MS-AK 0.31 + 0.16
[6] = 5-fold dose mg/kg bw/day: Monascin 1.56 (MS5X), Ankaflavin 0.78 (AK5X)

Compound | Kidney weight [1, 5] | Occupying percentage of summation of the weights of peri-adrenal and epididymal adipose tissue in body Fat [1, 5] | Kidney weight [1, 6] | Occupying percentage of summation of the weights of peri-adrenal and epididymal adipose tissue in body Fat [1, 6] | AUC (area under curve) of blood glucose [2] | percentage of adiponectin expression in adipose tissue (adiponectin) | ROS level in liver [3] | percentage of TNF-α expression in adipose tissue (TNF-α) | percentage of GLUT-2 expression in adipose tissue (GLUT-2) | percentage of GLUT-4 expression in adipose tissue (GLUT-4) | percentage of IL-6 expression in adipose tissue (IL-6) | percentage of IL-1β expression in adipose tissue (IL-1β) | percentage of HIF-1α expression in adipose tissue (HIF-1α) | formation of fatty liver [4]
C/C=C/C1=CC2=C(CO1)C(=O)[C@]1(C)OC(=O)[C@H](C(=O)CCCCCCC)[C@H]1C2 [Ankaflavin] | 3.72 ± 0.31^ab | 4.32 ± 0.59^b % | 3.55 ± 0.29^ab | 4.30 ± 0.53^b % |  |  |  |  |  |  |  |  |  | 
CN(C)C(=N)N=C(N)N [MF, Metformin] | 3.64 ± 0.26^ab | 4.27 ± 1.43^bc % |  |  | obviously lower | largely enhanced | largely lowered | largely reduced | largely enhanced | largely enhanced | largely lowered | largely lowered | largely lowered | alleviated or solved
C/C=C/C1=CC2=C(CO1)C(=O)[C@]1(C)OC(=O)[C@H](C(=O)CCCCC)[C@H]1C2 [Monascin] | 3.61 ± 0.20^ab | 5.12 ± 0.84^bc % | 3.71 ± 0.40^ab | 4.97 ± 0.80^bc % |  |  |  |  |  |  |  |  |  | 

Reference: patent publication US10143678B1, “Method of treatment of preventing hyperglycemia complications” (Sunway Biotech Co., LTD, priority 2015, dated 2018)
